Measurements from article PMC11481179, “Development and Application of Reversible and Irreversible Covalent Probes for Human and Mouse Cathepsin‐K Activity Detection, Revealing Nuclear Activity” (Advanced Science, 2024).

How the values were obtained:
U-87 MG cells = assay: Cell viability assay (methylene blue); assay type: cell-based, human; conditions: 48 h incubation
Method: U-2 OS, U-87 MG, and enriched monocyte cells were grown at 370 C with 5% of CO2 in the
respective medium as described previously. Cells were seeded (1500 cells/well in 96 wells
plate) one day before the incubation with indicated probe or inhibitor at various concentrations.
After 48 h cells were fixed, and viability was measured by quantitative colorimetric assay using
methylene blue according to the procedure reported by Ben-Bassat et al. The data were
expressed as a percentage of control; data represent the mean of 2 experiments with triplicates
for each treatment (± standard deviation).
Fluorescent imaging of CTSK activity in lung tissue: Freshly resected human lung cancer and
normal lung tissues or mouse normal lung and primary lung cancer were embedded in OCT,
frozen in liquid nitrogen, and kept at - 80° C. Tissues were sectioned into 10 μm thick slices
using a cryostat (Leica). The slides were defrosted and washed with 1X PBS. Then the slides
were pretreated with DMSO or GD30 (5 µM) in buffer acetate for 1 h at 37° C. Afterward,
GD32 (0.75uM) or DMSO in buffer acetate were applied to the slides for 4 h at 37° C. Three
short washes with 1X PBS were done and the slides were left in 1X PBS for overnight
incubation at 4° C. The next day, slides were mounted with DAPI-Fluoromount-G® before
visualization by confocal microscopy. Olympus FV10i was used for human samples, whereas
Zeiss was used for mouse samples.
Details of the synthesis of the compounds
Synthesis of Compound (2)

[1] = molecular target: T1, endogenous CTSK in intact U-2 OS cells (Homo sapiens, UniProt P43235); assay: Labeling of endogenous CTSK in intact cells, fluorescent SDS-PAGE; assay type: cell-based; conditions: inhibitor 5 µM, 2 h, then GD32 5 µM
T1 construct: ability to label endogenous CTSK activity in intact cells; endogenous in cells; host or cells: U-2 OS
T1 sequence (P43235 115-329): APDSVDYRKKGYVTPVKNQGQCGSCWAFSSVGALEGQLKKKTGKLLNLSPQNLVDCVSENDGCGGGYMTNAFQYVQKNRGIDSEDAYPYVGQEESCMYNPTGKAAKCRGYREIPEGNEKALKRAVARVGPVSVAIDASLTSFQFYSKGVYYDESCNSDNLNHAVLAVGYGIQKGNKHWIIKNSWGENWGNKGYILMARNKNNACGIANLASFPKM
Method: To test probe selectivity and the ability to label endogenous CTSK activity in intact cells, three cell lines were selected: human osteosarcoma MG‐63 and U‐2 OS, and human glioblastoma U‐87 MG; all cell lines express CTSK along with other lysosomal cathepsins.^[ [44] ^] First, the ABPs were incubated with intact U‐2 OS cells for different durations of time, and the probe selectivity toward CTSK was examined, with a pan cathepsin ABP, GB123, used as a control that labels CTS B, K, L, and S in cells. After cell lysis, the probe‐labeled enzymes were resolved and detected by a fluorescent scan of the SDS‐PAGE. […] Specifically, intact MG‐63 cells required a 5 h incubation (Figure 2b,c), while U‐87 MG cells required a 2 h incubation (Figure 2d).
Figure 2 Labeling of endogenous CTSK in intact cells. a) U2‐OS cells were treated with DMSO or 5 µM of the indicated inhibitors in culture medium, for 2 h, then with indicated ABPs [5 µM] in a culture medium for indicated times, followed by cell lysis, SDS‐PAGE separation, and fluorescent scanning of the gel at 635/670 nm. An immunoblot of CTSK of the same gel is presented below. b) Intact MG63 cells were treated with GD32 5 µM in the culture media for indicated times, cell lysates were analyzed as in a. CTSK immunoblot is presented, pro and mature CTSK are indicated by arrows. c) MG63 cells and d) U87MG cells were treated with DMSO, or 5 µM of indicated inhibitors in culture medium for 2 h, followed by incubation with 5 µM of indicated probes for 5 h (GD32 and GD42) and 2 h (GB123), cell lysates were analyzed by fluorescent SDS PAGE as in a. […] In (c) a CTSK immunoblot of a representative MG63 lane on the right. e) Labeling of active mature CTSK by GD32 in A549 and U2‐0S cells in externally adjusted different pH. Cells were incubated with 5 µM GD32 for 24 h in growth media at indicated pHs, prior to the cell lysis, cell lysates were analysed as in a. CTSK immunoblot below. f) A549 cells were incubated with increasing concentrations of GD30 for 2 h at pH = 5, followed by the incubation with 5 µM GD32 for 24 h prior to the cell lysis, cell lysates were analyzed as in a. g) Intact U‐87 MG cells or U‐87 MG cell lysates were treated with 5 µM GD32 for 2 h, the intact cells were then lysed and all lysates were analyzed as in (a). h) Intact or lysates of U‐87MG were treated with GD32 for 2 h then immunoprecipitation was done with an anti‐CTSK antibody. Input (I), immunoprecipitation (IP), and output (O) were separated by a 14% SDS‐PAGE and scanned for fluorescence. The gel was then blotted and reacted with an anti‐cystatin B antibody below. ODN (Odanacatib), GB111 (GB111‐NH2), mCTSK (mature CTSK). […]
deoxycholate). After adding sample buffer, samples were boiled for 10 minutes, and analyzed […]
lysates were analyzed as described above. […]

CTSS = CTSS (Homo sapiens, UniProt P25774); assay: In vitro kinetic evaluation of cathepsin inhibition, fluorescent substrate Z-FR-AMC; assay type: biochemical
CTSS, sequence (P25774 115-331): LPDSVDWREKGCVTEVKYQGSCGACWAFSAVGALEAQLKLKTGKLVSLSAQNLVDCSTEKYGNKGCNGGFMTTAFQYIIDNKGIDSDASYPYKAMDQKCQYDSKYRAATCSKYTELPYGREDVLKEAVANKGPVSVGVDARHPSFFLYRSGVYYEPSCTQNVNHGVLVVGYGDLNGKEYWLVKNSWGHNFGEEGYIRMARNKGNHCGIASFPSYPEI
Method: (§1) used for TLC. Phosphate Buffer Saline (PBS) was purchased from Biological Industries (pH = […]
(§2) 7.4) and was used as a buffer system in all experiments if not indicated otherwise. […]
(§3) Recombinant human CTSB, CTSK, CTSL, and CTSS were supplied by B. Turk (J.
(§4) Stefan Institute).[1] […]
(§5) In vitro kinetic evaluation of labeling recombinant cathepsins:
(§6) Reactions were monitored for 30 min at 37° C in 96-well black flat-bottom microplates […]
(Greiner, Germany) using Tecan INFINITE M1000 pro plate reader (Tecan, Switzerland), […]
(§7) substrates Z-RR-AMC (CTSL) or Z-FR-AMC (CTSS, CTSB and CTSK), and excitation and […]
emission wavelengths of 370 and 460 nm, respectively. Cathepsin concentrations in the assay were 0.4 nM (CTSK) or 5 nM (CTSS, CTSB, and CTSL). The buffer was 100 mM Na2HPO4/NaH2PO4, 50 mM NaCl, 5 mM DTT, 0,1% Peg-6000, pH 6. For irreversible inhibitors, reaction data were fitted to the one-phase association formula in GraphPad Prism 9 software: Y=Y0 + (Plateau-Y0)*(1-exp(-K*X)) where in this case Y0 and Y represent fluorescence signal at times 0 and t, respectively, K represent the observed reaction rate kobs and X the inhibitor concentration. Inactivation rates at each inhibitor concentration were obtained by subtracting the inactivation observed in the control sample: kobs – kctrl. The maximal rate of inactivation (kinact) was obtained as the asymptote from equation Y = kinact*X/(Kiapp + X) where X is inhibitor concentration, Y is the observed inactivation rate for each X, and Kiapp is the apparent inhibition constant. Ki values were calculated from IC50 or from Kiapp using formulas Ki = Kiapp / (1 + Km/S) and IC50 = E0/2 + Kiapp, where Km stands for Michalis-Menten constant, S for substrate concentration and E0 for cathepsin concentration.
(§8) The highest inhibitor concentrations in the assay were 50 µM. Measurements were performed in several independent duplicates. Average values are presented with standard deviations. […]

CTSK = molecular target: T2, CTSK (Homo sapiens, UniProt P43235); assay: as above; assay type: biochemical
T2 sequence (P43235 115-329): T1 sequence (P43235 115-329)
Source text: as §1, §2, §3, §4
Fluorescent gels were scanned by a Typhoon FLA 9500 flatbed laser scanner (GE Healthcare […]
Bio-Sciences AB, Uppsala, Sweden). BioRad ChemiDox XRS+ was used for western blot […]
analysis. Olympus FV10i inverted microscope (Tokyo,Japan) with Fluoview software or Zeiss […]
Confocal LSM 980 with Airyscan (Germany) with Zen software were used for confocal […]
as §5, §6
(Greiner, Germany) using Tecan […] M1000 pro plate reader (Tecan, Switzerland), […]
as §7
emission wavelengths of 370 and 460 nm, respectively. Cathepsin concentrations in the assay were 0.4 nM (CTSK) or 5 nM (CTSS, CTSB, and CTSL). The buffer was 100 mM Na2HPO4/NaH2PO4, 50 mM NaCl, 5 mM DTT, 0,1% Peg-6000, pH 6. For irreversible inhibitors, reaction data were fitted to the one-phase association formula in GraphPad Prism 9 software: Y=Y0 + (Plateau-Y0)*(1-exp(-K*X)) where in this case Y0 and Y represent fluorescence signal at times 0 and t, respectively, K represent the observed reaction rate kobs and X the inhibitor concentration. Inactivation rates at each inhibitor concentration were […]
maximal rate of inactivation (kinact) was obtained as the asymptote from equation […]
for each X, and Kiapp is the apparent inhibition constant. Ki values were calculated from IC50 or from Kiapp using formulas Ki = Kiapp / (1 + Km/S) and IC50 = E0/2 + Kiapp, where Km stands for Michalis-Menten constant, S for substrate concentration and E0 for cathepsin concentration.
as §8

With `Cc1cccc(C)c1C(=O)OCC(=O)[C@H](CCCCN)NC(=O)[C@H](Cc1ccccc1)NC(=O)OCc1ccccc1` [GB111‐NH2, reference compound] the cytotoxicity (U-87 MG cells) was “exhibited cytotoxicity” and the “effect of inhibitor preincubation on GD32-labeled CTSK band” value [1] was “depletion of the CTSK‐specific band”.
For `CC(C)(F)C[C@H](N[C@@H](c1ccc(-c2ccc(S(C)(=O)=O)cc2)cc1)C(F)(F)F)C(=O)NC1(C#N)CC1` [ODN, odanacatib, reference compound], the mode of inhibition (CTSS; CTSS) was “Reversible”, the IC50 (CTSS; CTSS 5 nM) was 0.14 µM and the “effect of inhibitor preincubation on GD32-labeled CTSK band” value [1] was “depletion of the CTSK‐specific band”. The mode of inhibition (CTSK; CTSK) was “Reversible [Tight binding]” and the IC50 (CTSK; CTSK 0.4 nM, tight binding) was 0.00094 µM.
